The values that follow come from patent publication US4778797A, “Organo-silicon compounds, process for the manufacture of same, and anti-tumor agent comprising the compound” (Sanwa Kagaku Kenkyusho Co., Ltd., priority 1984, dated 1988).

Read-outs that look alike come from different tables or passages of the source.

For test [1], the system named is L-1210 leukemia. Put plainly: Anti-tumor action to L-1210 leukemia. It counts as in vivo, BDF1 female mice. To be noted: Mus musculus, L1210, oral; for ILS at 250 mg/kg/day: 250 mg/kg/day × 3 (1st, 5th, 9th day); for ILS at 500 mg/kg/day: 500 mg/kg/day × 3 (1st, 5th, 9th day). Here is the method:
L-1210 leukemia cell (1×10^5 cells) was transplanted in a abdominal cavity of BDF1 female mice (20-21 g, age of about 5 weeks), and each of testing compounds was orally dosed in 250 mg/kg or 500 mg/kg at 1st, 5th and 9th day after the transplantation to check days of life of the mice. [formula]

Test [2] relates to Colon-38 carcinoma. Put plainly: Anti-tumor action to Colon-38 carcinoma. The class given is in vivo, BDF1 mice. To be noted: oral, tumor weight at 28th day. The procedure:
0.02 ml of 10(W/V)% cell suspension prepared from a solid cancer cell (Colon-38 carcinoma) were transplanted under skin of BDF1 mice (20-21 g, age of about 5 weeks), and each of testing compounds was orally dosed to the mice at 1st, 5th and 9th day after the transplantation. A major and minor axes of the cancerous tumor were measured at 11th, 14th, 21st, 25th and 28th day after the transplantation to calcurate volume of the tumor in accordance with the following.
At 28th day from the transplantation, the mice were killed and each of the cancerous tumors was extracted to measure its weight and to determine an inhibitation ratio in comparison with a non-treated control group.

In test [3] the test system is B-16 melanoma. In words: Anti-tumor action to B-16 melanoma. Conditions: oral, tumor weight at 21st day; for inhibition in vivo at 100 mg/kg/day / inhibition in vivo at 200 mg/kg/day / inhibition in vivo at 400 mg/kg/day: Mus musculus, B16, 504 h, read-out: B-16 melanoma Inhibition ratio; for inhibition in vivo at 100 mg/kg/day: 100 mg/kg/day × 3; for inhibition in vivo at 200 mg/kg/day: 200 mg/kg/day × 3; for inhibition in vivo at 400 mg/kg/day: 400 mg/kg/day × 3. It counts as in vivo, BDF1 female mice. The text has this: B-16 melanoma (1×10^5 cells) was transplanted under skin of BDF1 female mice (age of about 5 weeks), and each of testing compounds was orally dosed at 1st, 5th and 9th day after the transplantation. At 21st day after the transplantation, the mice were killed to measure a weight of the cancerous tumor and to finally determine an inhibition ratio.

Turning to `CC(C)(C)[Si](C)(C)CCCSCCCNC(=O)n1cc(F)c(=O)[nH]c1=O` [Example 14, N-[3-[[3-(t-Butyldimethylsilyl)propyl]thio]propyl]-5-fluoro-3,4-dihydro-2,4-dioxo-1(2H)-pyrimidinecarboxamide], the ILS at 250 mg/kg/day in test [1] (read-out: L-1210 ILS) was 19%; in test [1] (read-out: L-1210 Judgement), less than 25%. The ILS at 500 mg/kg/day was 68% in test [1] (read-out: L-1210 ILS) and 50 to 100% in test [1] (read-out: L-1210 Judgement). The “colon-38 Inhibition ratio” value in test [2] (323 mg/kg/day × 3) was 90.1%. Besides, the “B-16 melanoma Inhibition ratio” value in test [3] (125 mg/kg/day × 3) is 55.2%; in test [3] (250 mg/kg/day × 3), 46.3%.
On to `CCCC[Si](C)(C)CCSCCCNC(=O)n1cc(F)c(=O)[nH]c1=O` [Example 17, N-[3-[[2-(Butyldimethylsilyl)ethyl]thio]propyl]-5-fluoro-3,4-dihydro-2,4-dioxo-1(2H)-pyrimidinecarboxamide], for which the inhibition in vivo at 312 mg/kg/day in test [2] (Mus musculus, 672 h, 312 mg/kg/day × 3, read-out: colon-38 Inhibition ratio) came to 97.4%. In addition, in test [3], the inhibition in vivo at 100 mg/kg/day turned out to be 54.3%, the inhibition in vivo at 200 mg/kg/day is 16.3% and the inhibition in vivo at 400 mg/kg/day worked out at 34.8%.
Take `C[Si](C)(CCSCCCNC(=O)n1cc(F)c(=O)[nH]c1=O)c1ccccc1` [Example 18, N-[3-[[2-(Dimethylphenylsilyl)ethyl]thio]propyl]-5-fluoro-3,4-dihydro-2,4-dioxo-1(2H)-pyrimidinecarboxamide]: in test [2] (Mus musculus, 672 h, 328 mg/kg/day × 3, read-out: colon-38 Inhibition ratio), the inhibition in vivo at 328 mg/kg/day turned out to be 71.3%. In test [3], the inhibition in vivo at 100 mg/kg/day was 55.2%, the inhibition in vivo at 200 mg/kg/day was found to be 46.7% and the inhibition in vivo at 400 mg/kg/day is 29.6%.
Consider `C[Si](C)(CCCSCCCNC(=O)n1cc(F)c(=O)[nH]c1=O)c1ccccc1` [Example 16, N-[3-[[3-(Dimethylphenylsilyl)propyl]thio]propyl]-5-fluoro-3,4-dihydro-2,4-dioxo-1(2H)-pyrimidinecarboxamide], for which the ILS at 250 mg/kg/day is 23% in test [1] (read-out: L-1210 ILS) and less than 25% in test [1] (read-out: L-1210 Judgement). In addition, the ILS at 500 mg/kg/day in test [1] (read-out: L-1210 ILS) was 86%; in test [1] (read-out: L-1210 Judgement), 50 to 100%. Further, the “colon-38 Inhibition ratio” value in test [2] (339 mg/kg/day × 3) amounted to 97.9%. Also, the “B-16 melanoma Inhibition ratio” value in test [3] (125 mg/kg/day × 3) is reported as 82.2%; in test [3] (250 mg/kg/day × 3), 70.5%.
Consider `CCCC[Si](C)(C)CCCSCCCNC(=O)n1cc(F)c(=O)[nH]c1=O` [Example 15, N-[3-[[3-(Butyldimethylsilyl)propyl]thio]propyl]-5-fluoro-3,4-dihydro-2,4-dioxo-1(2H)-pyrimidinecarboxamide], for which the ILS at 250 mg/kg/day in test [1] (read-out: L-1210 ILS) is 26%; in test [1] (read-out: L-1210 Judgement), 25 to 50%. For the same compound, the ILS at 500 mg/kg/day in test [1] (read-out: L-1210 ILS) was 62%; in test [1] (read-out: L-1210 Judgement), 50 to 100%. Besides, the “colon-38 Inhibition ratio” value in test [2] (323 mg/kg/day × 3) worked out at 92.3%. Besides, the “B-16 melanoma Inhibition ratio” value is 69.5% in test [3] (125 mg/kg/day × 3) and 88.5% in test [3] (250 mg/kg/day × 3).
